According to patent US6437093B1, “Methods of treatment comprising administration of Substance P” (Milkhaus Laboratory, Inc., priority 2000, dated 2002):
Ends that are not written are not given here.

How the values were obtained:
Type in all cases: in vivo, human
[1] = system: upper airway distress, persistent cough, RUDS (Reactive Upper Airway Dysfunction); test: Case report: persistent cough from RUDS triggered by volatile chemicals, sublingual Substance P; settings: person with RUDS; sublingual drop 8×10−^5 mg, one drop per hour for three hours then four times daily
Description: His disease appeared to be initiated by chronic exposure to floor stripper which caused RUDS (Reactive Upper Airway Dysfunction). […] Each drop contained 8×10−^5 mg synthetic Substance P (Sigma) in phosphate buffered saline.

[2] = system: repetitive, almost tic-like, exaggerated cough; test: Case report: repetitive tic-like exaggerated cough, sublingual Substance P; settings: child
Description: Their disease appeared to be initiated by chronic exposure to floor stripper which caused RUDS (Reactive Upper Airway Dysfunction). […] Each drop contained 8×10−^5 mg synthetic Substance P (Sigma) in phosphate buffered saline. According to this example, a child presented with a repetitive, almost tic-like, exaggerated cough that was disruptive to their classmates and teacher. Several physicians were consulted without success and with no apparent cause found for the cough.

[3] = system: RUDS manifested as severe hoarseness or aphonia; test: Case report: RUDS with severe hoarseness or aphonia, sublingual Substance P; settings: person, one drop four times daily or more if needed
Description: Their disease appeared to be initiated by chronic exposure to floor stripper which caused RUDS (Reactive Upper Airway Dysfunction). […] Each drop contained 8×10−^5 mg synthetic Substance P (Sigma) in phosphate buffered saline. According to this example, a person presented RUDS that manifested as severe hoarseness or even aphonia if exposed to volatile chemicals, and especially to fragrances. They had suffered for several years after being exposed to fragrances from several co-workers using multiple perfumes. Their airway problem was reduced only by complete avoidance of any exposure to volatile chemicals which dramatically changing their lifestyle. […] Their RUDS continues to be controlled by taking one drop of Substance P four times daily, or more frequently if needed.

[4] = system: numbness, tingling and severe pain in feet and legs; test: Case report: numbness, tingling and severe pain in feet, legs and hands, sublingual Substance P; settings: person; sublingual administration as in Example 1
Description: Their disease appeared to be initiated by chronic exposure to floor stripper which caused RUDS (Reactive Upper Airway Dysfunction). […] Each drop contained 8×10−^5 mg synthetic Substance P (Sigma) in phosphate buffered saline. According to this example, a person presented with a history of numbness, tingling and severe pain in feet and legs eight years earlier. During the year immediately preceding their first office visit, the discomfort had spread to their hands. […] No cause of their discomfort could be determined, and the only relief they obtained was from narcotic analgesics.

[5] = system: severe sciatic-like pain of the hip; test: Case report: severe sciatic-like hip pain in a diabetic subject, sublingual Substance P; settings: person with diabetes; sublingual administration as in Example 1
Description: Their disease appeared to be initiated by chronic exposure to floor stripper which caused RUDS (Reactive Upper Airway Dysfunction). […] Each drop contained 8×10−^5 mg synthetic Substance P (Sigma) in phosphate buffered saline. According to this example, a person presented with severe sciatic-like pain of the hip of long duration. The subject also presented with a diagnosis of diabetes. […] They continue well for over two years.

chronic sciatic pain = test: Case report: chronic disabling sciatic pain, sublingual Substance P; settings: person
Description: Their disease appeared to be initiated by chronic exposure to floor stripper which caused RUDS (Reactive Upper Airway Dysfunction). […] Each drop contained 8×10−^5 mg synthetic Substance P (Sigma) in phosphate buffered saline. According to this example, a person presented with a diagnosis of chronic sciatic pain that was disabling and of several years duration. Analgesics helped reduce the pain. The subject was treated by sublingual administration of Substance P according to the method of Example 1.

[6] = system: arthritis-like pain and inflammation of the knuckles; test: Case report: arthritis-like pain and inflammation of the knuckles, sublingual Substance P; settings: person; after three days of sublingual drop therapy, continued after two months
Description: Their disease appeared to be initiated by chronic exposure to floor stripper which caused RUDS (Reactive Upper Airway Dysfunction). […] Each drop contained 8×10−^5 mg synthetic Substance P (Sigma) in phosphate buffered saline. According to this example, a person with arthritis-like pain and inflammation of the knuckles but who tested negative for rheumatoid factor. […] The subject was treated by sublingual administration of Substance P according to the method. of Example 1.

Substance P (RPKPQQFFGLM; not fully specified (C-terminus); UniProt P20366 58-68, looked up) [synthetic Substance P (Sigma) in phosphate buffered saline; a tachykinin naturally occurring in the body]
effect on persistent cough [1]: stopped almost immediately
long-term control of cough disorder ([2]; continued sublingual treatment): continued to control this disorder after more than a year
effect on cough ([2]; sublingual administration as in Example 1): stopped the cough within minutes
effect on RUDS (hoarseness/aphonia) [3]: significant improvement
need for narcotic analgesics [4]: able to discontinue narcotics
pain relief [4]: almost immediate pain relief
effect on sciatic-like hip pain [5]: reduced the pain dramatically
long-term control of sciatic pain (chronic sciatic pain; daily doses over several months): continued control of pain
effect on chronic sciatic pain after first drop (chronic sciatic pain; first sublingual drop): instantly and dramatically “turned off” the pain
effect on arthritis-like pain and inflammation [6]: “remarkable” improvement
